Measured values published in patent publication US5198457A, “Treatment of hyperthyroidism with 1,3-dihydro-1[2-(2-thienyl)alkyl]-2H-imidazole-2-thiones” (Merrell Dow Pharmaceuticals Inc., priority 1992, dated 1993).

Key:
[1] = system: thyroid follicular epithelium; assay: Two week rat study, oral gavage: thyroid findings; assay type: in vivo, Sprague-Dawley rats
Description: The activity of the compounds of Formula I is illustrated through their effects on thyroid function in the rat.
(§1) Sprague-Dawley rats were divided into groups of five males and five females and administered daily by gavage 0, 50, 100, 200, 300, 500, 700 and 1,000 mg/kg/day for two weeks under both fed and fasted conditions. Behavior of the rats was monitored daily while body weight, food consumption and clinical signs were measured weekly. At the termination of the study, rats were bled for clinical chemistry and hematology determinations. After bleeding, rats were sacrificed and necropsied in order that organs could be examined grossly, and tissue specimens were collected for subsequent microscopic examination.

[2] = Two week rat study: clinical chemistry (cholesterol); assay type: in vivo, Sprague-Dawley rats
Description: as §1

thyroid [3] = assay: Three month rat study, gavage: thyroid histology and thyroid weight; assay type: in vivo, Sprague-Dawley rats; details: for Thyroid follicular cell hyperplasia (incidence), treatment: up to three months, gavage; for Thyroid weight, treatment / Thyroid weight, recovery: mean ± standard deviation; for Thyroid weight, recovery: one month recovery
Description: (§2) Collectively, these findings are consistent with drug-induced inhibition of thyroid function and resulting morphological alterations due to compensatory stimulation of increased TSH due to decreased secretion of thyroid hormones.
(§3) For this study Sprague-Dawley rats were divided into groups of 33 males and 33 females and administered by gavage 0, 50 and 200 mg/kg/day of 1,3-dihydro-1-[2-(2-thienyl)ethyl]-2H-imidazole-2-thione in 0.5% aqueous methylcellulose for up to three months. Additional pharmacokinetic study of drug levels was performed by bleeding 3 males and 3 females from each group either 2 or 24 hours posdosing on treatment days 1, 45 and 87. Study parameters included daily observation of behavior; weekly observations of physical condition, food consumption and body weight; and terminal ophthalmoscopic evaluation, serum clinical chemistry, hematology, organ weights, and gross and microscopic tissue examinations.

[4] = Three month rat study, gavage: serum cholesterol; assay type: in vivo, Sprague-Dawley rats
Description: as §2, §3

[5] = system: dopamine beta-hydroxylase; details: relative to methimazole analogs with larger 1-alkyl substituents; Fuller et al. 1977; cited from earlier work
thyroid [6] = details: Fuller et al. 1977; cited from earlier work
[7] = 200 mg/kg/day, female, P < 0.01 compared to controls

S=c1[nH]ccn1CCc1cccs1 [1,3-Dihydro-1-[2-(2-thienyl)ethyl]-2H-imidazole-2-thione]
Thyroid follicular epithelium findings, lower doses ([1]; 100-300 mg/kg/day males, 50-300 mg/kg/day females, two weeks): mainly hypertrophic with minimal colloid involution
Thyroid follicular cell findings, high doses ([1]; >500 mg/kg/day, two weeks): diffuse hyperplasia, hypertrophy, increased mitotic FIGURES, and involution or total absence of luminal colloid
Onset of effect on thyroid follicular epithelium ([1]; oral, 50 to 700 mg/kg/day): three to four
Effect on thyroid follicular epithelium ([1]; oral, 50 to 700 mg/kg/day, two weeks): striking effects on the thyroid follicular epithelium
Effect on thyroid gland at high doses ([1]; rat, high doses): lesions in the thyroid gland and associated clinicopathological findings that indicate thyroid hormone synthesis is reduced or inhibited
Cholesterol level, % of pretest values ([2]; females, doses >200 mg/kg/day): approximately 135%
Cholesterol level, % of pretest values ([2]; males, doses >500 mg/kg/day): approximately 135%
Thyroid follicular cell hyperplasia (incidence), treatment (thyroid [3]; 50 mg/kg/day, female): 7/10
Thyroid weight, treatment (thyroid [3]; 50 mg/kg/day, female, P < 0.01 compared to controls): .03 ± .01 gm
Thyroid follicular cell hyperplasia (incidence), recovery (thyroid [3]; 50 mg/kg/day, female, one month recovery from dosing): 0/5
Thyroid weight, recovery (thyroid [3]; 50 mg/kg/day, female): .02 ± .00 gm
Thyroid follicular cell hyperplasia (incidence), treatment (thyroid [3]; 50 mg/kg/day, male): 10/10
Thyroid weight, treatment (thyroid [3]; 50 mg/kg/day, male, P < 0.01 compared to controls): .04 ± .01 gm
Thyroid follicular cell hyperplasia (incidence), recovery (thyroid [3]; 50 mg/kg/day, male, one month recovery from dosing): 0/5
Thyroid weight, recovery (thyroid [3]; 50 mg/kg/day, male): .03 ± .01 gm
Thyroid follicular cell hyperplasia (incidence), treatment (thyroid [3]; 200 mg/kg/day, female): 10/10
Thyroid weight, treatment (thyroid [3]; [7]): .06 ± .03 gm
Thyroid follicular cell hyperplasia (incidence), recovery (thyroid [3]; 200 mg/kg/day, female, one month recovery from dosing): 8/10
Thyroid weight, recovery (thyroid [3]; [7]): .03 ± .01 gm
Thyroid follicular cell hyperplasia (incidence), treatment (thyroid [3]; 200 mg/kg/day, male): 10/10
Thyroid weight, treatment (thyroid [3]; 200 mg/kg/day, male, P < 0.01 compared to controls): .14 ± .08 gm
Thyroid follicular cell hyperplasia (incidence), recovery (thyroid [3]; 200 mg/kg/day, male, one month recovery from dosing): 0/5
Thyroid weight, recovery (thyroid [3]; 200 mg/kg/day, male, P < 0.05 compared to controls): .05 ± .01 gm
Reversibility of thyroid findings (thyroid [3]; one month recovery from dosing): nearly completely reversible
Thyroid effects, three month study (thyroid [3]; single daily doses of 50 and 200 mg/kg/day): profound thyroid effects characterized by thyroid follicular cell hyperplasia, increased thyroid weights and hypercholesteremia
Serum cholesterol, treatment ([4]; 50 mg/kg/day, female (control 71)): 88 mg/dL
Serum cholesterol, recovery ([4]; 50 mg/kg/day, female, one month recovery (control 66)): 86 mg/dL
Serum cholesterol, treatment ([4]; 50 mg/kg/day, male (control 63)): 81 mg/dL
Serum cholesterol, recovery ([4]; 50 mg/kg/day, male, one month recovery (control 75)): 74 mg/dL
Serum cholesterol, treatment ([4]; 200 mg/kg/day, female (control 71)): 105 mg/dL
Serum cholesterol, recovery ([4]; 200 mg/kg/day, female, one month recovery (control 66)): 76 mg/dL
Serum cholesterol, treatment ([4]; 200 mg/kg/day, male (control 63)): 97 mg/dL
Serum cholesterol, recovery ([4]; 200 mg/kg/day, male, one month recovery (control 75)): 76 mg/dL

Sc1nccn1C1CCCCC1 [1-cyclohexyl-2-mercaptoimidazole (CHMI), 1-cyclohexyl-2-mercaptoimidazole]
DBH-inhibiting activity [5]: greatest DBH inhibition
Antithyroid activity (thyroid [6]): only slight antithyroid activity

Cn1ccnc1S [methimazole, 1-methyl-2-mercaptoimidazole]
DBH-inhibiting activity [5]: less pronounced than that of methimazole analogs bearing larger 1-alkyl substituents
